According to patent publication US8871735B2, “Methods and compositions for providing cardiac protection” (University of Medicine and Dentistry of New Jersey, priority 2008, dated 2014):
Entries after “also recorded” stand apart in the source; their conditions may differ. Read-outs that look alike come from different tables or passages of the source.

Key:
cardiac myocytes [1] = test: ISO-stimulated cAMP accumulation in cultured cardiac myocytes; type: cell-based, mouse; settings: 10 μM compound
cardiac myocytes [2] = test: ISO-induced apoptosis in cultured cardiac myocytes (DNA fragmentation ELISA); type: cell-based; settings: 100 μM ISO, 48 h
Method: Cultured cardiac myocytes were incubated with 100 μM ISO in the presence or absence of AC5 inhibitors at the indicated concentrations for 48 h.

AC6 = test: Forskolin-stimulated cAMP production in heart membrane preparations from AC6Tg; type: biochemical, mouse; settings: forskolin 50 μM
[3] = system: mice, chronic ISO infusion; test: Treadmill exercise tolerance after chronic ISO; type: in vivo, mouse
Method: Treadmill exercise tolerance was performed as previously described. One week after pump implantation, pumps were removed under anesthesia. The next day after removal, mice were placed on a custom-built four-lane treadmill with an infrared detection system above the shock stimulus at a starting speed of 2 m/min. Every two minutes, the speed was increased by 4 m/min for 16 min or until the mouse could no longer run.

mice = test: Basal cardiac function (echocardiography) under chronic drug infusion alone; type: in vivo, mouse; settings: chronic infusion of drug alone (3 days to 1 week)
Text: ISO with or without AC5 inhibitors were chronically infused with osmotic mini-pump implanted subcutaneously at indicated doses for 1 week in c57Bl/6 mice. Mice were then subjected to echocardiography (a) and the hearts were removed and subjected to pathological examinations such as myocardial apoptosis (b) and fibrosis (c). n=4-8.
In C57Bl/6 mice, ISO with or without AC5 inhibitors or metoprolol were chronically infused with an osmotic mini-pump at the indicated doses for 1 week. Mice were then subjected to echocardiography (a) and heart tissue were subjected to a myocardial apoptosis assay (b). *, p<0.01 vs vehicle. #, p<0.05 vs vehicle. .dagger., p<0.01 vs ISO. .dagger-dbl., p<0.05 vs ISO. n=4-15. […] Comparisons between multiple groups were made using ANOVA with post-hoc tests.
Mice were anesthetized with 2.5% tribromoethanol (0.010 to 0.015 mL per gram of body weight) injected intraperitoneally, and echocardiography was performed with ultrasonography (ACUSON Sequoia C256, Siemens Medical Solutions, Malvern, Pa.). For acute injection of isoproterenol, forskolin and milrinon, a PE-10 catheter was inserted into the right jugular vein, and drugs were injected at the rate of 1 μl/s. cAMP accumulation assay in H9C2 cells, a cardiac myoblast cell line, was examined as previously described. […]

AC5 [4] = target: T1, AC5 (Mus musculus, UniProt P84309); test: Acute ISO, milrinone or carbachol challenge in mice chronically infused with Ara-Ade; type: in vivo
AC5 [5] = test: as above; type: in vivo, mouse; settings: 0.05 μg/kg IV ISO, AC5Tg
ERK/MEK/Bcl-2 pathway = test: Western blot of hearts after chronic ISO infusion; type: in vivo, mouse
Method: The activities of MEK1 and ERK1/2 signaling pathway were examined by measuring the phosphorylated and total forms.
Western blotting was conducted with commercially available antibodies, except for type 5 and type 6 AC. Western blotting for type 5 and 6 AC was performed as previously described. Protein expression was quantified by densitometry.

[6] = system: C57Bl/6 mice motor function; test: Rotarod performance test and pole test; type: in vivo, mouse; settings: mouse
Method: In C57Bl/6 mice, Ara-Ade was chronically infused with an osmotic mini-pump at the indicated doses for 5 days. a) Each mouse was placed on a rod subjected to evaluate Rotarod performance. Mice were left for 1 min on the rod for habituation. The rod rotated gradually increasing from 4 to 40 rpm over the course of 5 min, and the time that mice could stay without failing was recorded. Five trials were conducted for each individual 10-25 min apart. As a positive control, 1-methyl 4-phenyl 1,2,3,6-tetrahydropyridine (MPTP) was intraperitoneally injected for the indicated dose for 5 days. *, p<0.01 relative to vehicle. #, p<0.05 relative to vehicle. n=6-7. b) To evaluate bradykinesia, a pole test was performed. Mice were placed head upward on the top of a rough surfaced pole that was wrapped with gauze to prevent slipping. The time until the mouse turned completely downward (open bars, TTURN) and the time until it climbed down to the floor (closed bars, TLA) were measured.
Four days after the implantation, Rotarod performance test and pole test were examined as previously described. For MPTP injection (1-methyl 4-phenyl 1,2,3,6-tetrahydropyridine), mice were injected intraperitoneally (i.p.) with 0.1 mL of PBS or MPTP dissolved in PBS at 24-hour intervals for 5 days. The daily dose of MPTP was 30 mg/kg. […]

[7] = system: mice after coronary occlusion; test: Coronary occlusion (post-MI) survival and echocardiography; type: in vivo, mouse
Method: Ara-Ade (50 mg/kg/day) was chronically infused with mini-osmotic pumps implanted subcutaneously 2-3 days before the coronary occlusion. […] (b) Echocardiography was performed at 16 days after coronary occlusion.

[8] = system: C57BL/6 mice, CAO 30 min / CAR; test: Mouse ischemia and reperfusion model; type: in vivo
Method: Mice were divided into three different groups. Group I was administered AC5 inhibitor chronically for three weeks prior to CAO for 30 minutes followed by CAR for 24 hours. Group II was administered the AC5 inhibitor by i.v. infusion for 5 minutes immediately prior to CAO for 30 minutes followed by CAR for 24 hours. Group III was administered the AC5 inhibitor by i.v. infusion for 5 minutes immediately following CAO for 30 minutes and during CAR for 24 hours. Vehicle controls were included for all three treatment groups.
3-4 month old male C57BL/6 mice purchased from Jackson Laboratory were anesthetized by an injection of 2% 2,2,2-tribromomethanol (0.66 mg/g i.p.; Aldrich Chemical, St. Louis, Mo.). The mice were then orally intubated and mechanically ventilated. The heart was accessed via a thoracotomy at the fourth intercostals space and 7-0 silk suture passed under the left anterior descending coronary artery (LAD) at the point where it emerged from under the left atrial flap. Myocardial ischemia was achieved by occluding the LAD against a 22-gauge J-shaped stainless steel probe and verified by visually noting the regional akinesis and blanching of the left ventrical. The chest was closed in layers, with the long end of the probe remaining outside the chest wall, allowing the animal to be removed from the ventilator. After 30 min. of ischemia, reperfusion was initiated by carefully pulling the probe out form the ligature and then removing it from the chest cavity. Following the surgical procedure, the mouse was allowed to recover on a warmed surface, with supplemental oxygen delivered from a nose cone. I/R were verified by three lead electrocardiograms, which were obtained preoperatively, at the end of the ischemic interval and immediately after the initiation of reperfusion. Mice fully recovered from the surgical procedure were returned to standard animal housing conditions. The mice were under either 24 hrs of reperfusion followed by sacrifice and dual staining of the heart with TTC and Alcian Blue or kept for 4 weeks to study the heart failure progression. For the long term study post ischemia and reperfusion, the animals underwent echocardiography recording at 4 days, 2 weeks and 4 weeks after reperfusion.

[9] = system: Yorkshire pigs, CAO / CAR; test: Pig ischemia and reperfusion model; type: in vivo
Method: Yorkshire pigs were under anesthesia and instrumented in accordance with established procedures. After 4 days of recovery, the pigs were subjected to ischemia and reperfusion also in accordance with established procedures. At 3 hours of coronary artery reperfusion, the animals were sacrificed and the infarct size was measures with TTC staining.

Water solubility = type: physicochemical
[10] = cited from earlier work
[11] = administration of 15 mg/kg/day; read-out: plasma Cmax; cited from earlier work
type 5 AC = type 5 AC (Homo sapiens, UniProt O95622); test: Double-reciprocal plots of type 5 AC catalytic activity against ATP
Method: (§1) Hearts and striatum were dissected from the mice and membrane preparations were made as previously described. This crude membrane preparation was used in the AC assay. AC activity was measured by a modification of the method of Salomon et al. as previously described. […] Double-reciprocal plots were examined as previously described.

AC5 [12] = target: T1, AC5; test: Forskolin-stimulated cAMP production in heart membrane preparations from AC5Tg; settings: forskolin 50 μM
Method: as §1

[13] = 30 min CAO, 24 hr CAR, vehicle 36%

T1 sequence (P84309 whole entry, the tested form may be a part): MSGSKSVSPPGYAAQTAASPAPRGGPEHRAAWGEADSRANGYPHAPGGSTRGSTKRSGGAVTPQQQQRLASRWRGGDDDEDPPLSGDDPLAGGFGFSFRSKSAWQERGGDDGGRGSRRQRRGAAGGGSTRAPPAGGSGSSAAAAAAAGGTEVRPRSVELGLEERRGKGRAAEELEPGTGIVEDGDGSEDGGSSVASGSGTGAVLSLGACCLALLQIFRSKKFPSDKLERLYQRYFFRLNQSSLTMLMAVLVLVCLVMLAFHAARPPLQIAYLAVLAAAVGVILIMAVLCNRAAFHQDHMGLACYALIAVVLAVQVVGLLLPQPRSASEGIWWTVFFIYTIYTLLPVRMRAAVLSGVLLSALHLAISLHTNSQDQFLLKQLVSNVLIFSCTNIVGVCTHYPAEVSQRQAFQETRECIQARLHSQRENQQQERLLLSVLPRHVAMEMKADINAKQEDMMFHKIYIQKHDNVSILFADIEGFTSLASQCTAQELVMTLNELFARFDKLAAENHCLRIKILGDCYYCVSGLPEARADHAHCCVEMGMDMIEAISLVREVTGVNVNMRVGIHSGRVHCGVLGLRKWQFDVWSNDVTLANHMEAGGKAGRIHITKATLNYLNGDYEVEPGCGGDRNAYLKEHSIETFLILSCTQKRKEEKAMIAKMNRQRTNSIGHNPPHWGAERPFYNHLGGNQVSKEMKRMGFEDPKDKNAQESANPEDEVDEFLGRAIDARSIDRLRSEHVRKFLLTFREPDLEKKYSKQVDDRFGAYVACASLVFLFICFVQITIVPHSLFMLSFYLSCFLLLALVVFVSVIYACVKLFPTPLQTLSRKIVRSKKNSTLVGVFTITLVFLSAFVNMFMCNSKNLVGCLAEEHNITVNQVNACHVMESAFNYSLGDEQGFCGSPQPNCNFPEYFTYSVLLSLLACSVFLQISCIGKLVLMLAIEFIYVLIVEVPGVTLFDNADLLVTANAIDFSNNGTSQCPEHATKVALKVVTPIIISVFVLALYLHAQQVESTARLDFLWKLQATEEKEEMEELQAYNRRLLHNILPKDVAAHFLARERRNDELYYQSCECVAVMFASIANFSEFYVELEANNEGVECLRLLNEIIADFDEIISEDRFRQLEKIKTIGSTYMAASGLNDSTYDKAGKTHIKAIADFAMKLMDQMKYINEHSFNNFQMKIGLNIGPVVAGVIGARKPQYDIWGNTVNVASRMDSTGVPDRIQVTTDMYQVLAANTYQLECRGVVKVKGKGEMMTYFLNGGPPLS
Chain of type 5 AC (O95622 whole entry): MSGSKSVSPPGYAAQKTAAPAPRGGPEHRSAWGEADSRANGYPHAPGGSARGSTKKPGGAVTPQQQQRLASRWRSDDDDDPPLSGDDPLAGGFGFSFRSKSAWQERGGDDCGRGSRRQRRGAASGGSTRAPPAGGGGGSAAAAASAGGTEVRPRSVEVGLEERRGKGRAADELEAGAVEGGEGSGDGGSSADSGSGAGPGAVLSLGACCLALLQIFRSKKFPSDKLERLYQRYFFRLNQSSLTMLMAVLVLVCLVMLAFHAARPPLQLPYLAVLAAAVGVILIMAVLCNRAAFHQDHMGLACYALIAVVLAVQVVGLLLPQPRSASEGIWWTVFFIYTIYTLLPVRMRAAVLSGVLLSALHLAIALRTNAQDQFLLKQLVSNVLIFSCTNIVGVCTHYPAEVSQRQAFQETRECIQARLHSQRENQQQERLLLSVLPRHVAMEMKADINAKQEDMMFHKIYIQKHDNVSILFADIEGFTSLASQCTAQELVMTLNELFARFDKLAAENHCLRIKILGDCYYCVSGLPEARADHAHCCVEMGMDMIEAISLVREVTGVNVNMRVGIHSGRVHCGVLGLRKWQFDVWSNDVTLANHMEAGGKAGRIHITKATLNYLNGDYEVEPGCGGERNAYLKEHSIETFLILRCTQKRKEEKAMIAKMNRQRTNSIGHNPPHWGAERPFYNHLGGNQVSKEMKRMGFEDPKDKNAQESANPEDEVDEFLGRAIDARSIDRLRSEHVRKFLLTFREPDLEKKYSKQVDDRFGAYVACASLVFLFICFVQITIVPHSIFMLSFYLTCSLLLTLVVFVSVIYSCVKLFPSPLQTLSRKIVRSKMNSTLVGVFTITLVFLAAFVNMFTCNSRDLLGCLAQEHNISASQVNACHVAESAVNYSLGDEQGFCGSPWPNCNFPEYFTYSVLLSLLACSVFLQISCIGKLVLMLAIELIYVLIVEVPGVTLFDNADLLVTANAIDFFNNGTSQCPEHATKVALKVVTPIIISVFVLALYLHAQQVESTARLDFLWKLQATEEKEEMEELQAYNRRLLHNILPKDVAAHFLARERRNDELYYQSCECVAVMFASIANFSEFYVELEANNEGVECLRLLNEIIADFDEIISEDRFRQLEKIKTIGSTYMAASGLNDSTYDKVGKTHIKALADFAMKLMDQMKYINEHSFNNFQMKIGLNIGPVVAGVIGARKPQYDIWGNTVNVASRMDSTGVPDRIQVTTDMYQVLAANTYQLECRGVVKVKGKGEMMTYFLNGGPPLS

SMILES: Nc1ncnc2c1ncn2[C@@H]1O[C@H](CO)[C@@H](O)[C@@H]1O [Ara-Ade, 9-β-D-arabinofuranosyladenine]
- decrease in ISO-induced cAMP production / accumulation in cultured cardiac myocytes (cardiac myocytes [1]): 20%
- ISO-induced apoptosis in cultured cardiac myocytes (cardiac myocytes [2]): completely abolished
- effective concentration in inhibiting apoptosis (cardiac myocytes [2]; FIG. 3d): 10 µM
- inhibition of cAMP production, heart membrane preparation from AC6Tg (AC6): little inhibitory effect
- maximum velocity in the treadmill test [3]: rescued ISO-induced decrease in the maximum velocity
- basal LVEF (mice): did not change LVEF; also recorded: did not affect basal LVEF
- difference in LVEF between vehicle and Ara-Ade in WT (AC5 [4]; 0.05 μg/kg IV ISO, WT): no significant difference
- LVEF after ISO vs vehicle (AC5 [4]; Ara-Ade 20 mg/kg/day chronically infused, 0.25 μg/kg IV ISO): lower
- LVEF elevation by milrinone, vehicle vs Ara-Ade group (AC5 [4]; milrinone infusion): no significant difference
- decrease in HR by carbachol (AC5 [4]; vehicle vs Ara-Ade): greater in vehicle than Ara-Ade
- difference in LVEF between vehicle and Ara-Ade in AC5Tg (AC5 [5]): significant
- phosphorylation of Bcl-2 (ERK/MEK/Bcl-2 pathway): significantly increased
- phosphorylation of ERK1/2 and MEK (ERK/MEK/Bcl-2 pathway): increased
- BBB-permeability (concluded from motor tests) [6]: little BBB-permeability
- LVEF after MI ([7]; 16 days after coronary occlusion): prevented decrease in LVEF
- survival rate after coronary occlusion ([7]; Ara-Ade 50 mg/kg/day from 2-3 days before occlusion, chi-square at 16 days): significant increase in survival rate
- arterial pressure and heart rate [8]: did not reduce arterial pressure and reflexly increase heart rate
- infarct size, drug administered before CAO or CAR [8, 13]: 21%
- infarct size, drug delivered at CAR [8, 13]: 16%
- development of heart failure after ischemia and reperfusion ([8]; i.v. infusion after CAO, during or after reperfusion): prevented development of heart failure
- infarct size in chronically instrumented conscious pigs ([9]; delivered after CAR): reduced infarct size
- reactive hyperemia in pigs ([9]; pig, in vivo): inhibited reactive hyperemia
- water solubility (Water solubility): poorly water-soluble
- Cmax ([10]; 10 mg/kg, intravenously infusion for 30 min, read-out: Cmax in human): 4.8 µM
- Cmax ([10]; human, intravenous infusion 10 mg/kg, read-out: plasma Cmax): 4.8 µM
- Cmax [11]: ~10 µM
- mode of inhibition with respect to ATP (type 5 AC): non-competitive; also recorded: un-competitive or non-competitive
- inhibition of cAMP production, heart membrane preparation from AC5Tg (AC5 [12]): inhibited cAMP production
